What was measured:
[1] = biological target: T1, SIRT1 (Homo sapiens, UniProt Q96EB6); test: Mass spectrometry based assay to identify modulators of SIRT1 activity (deacetylation of p53-based acetylated peptide substrate); format: biochemical; conditions: for Emax: 25 min, read-out: % FOLD ACT. (percent maximum fold activation); for Emax / EC1.5: SIRT1 activation
T1 sequence (Q96EB6 1-747): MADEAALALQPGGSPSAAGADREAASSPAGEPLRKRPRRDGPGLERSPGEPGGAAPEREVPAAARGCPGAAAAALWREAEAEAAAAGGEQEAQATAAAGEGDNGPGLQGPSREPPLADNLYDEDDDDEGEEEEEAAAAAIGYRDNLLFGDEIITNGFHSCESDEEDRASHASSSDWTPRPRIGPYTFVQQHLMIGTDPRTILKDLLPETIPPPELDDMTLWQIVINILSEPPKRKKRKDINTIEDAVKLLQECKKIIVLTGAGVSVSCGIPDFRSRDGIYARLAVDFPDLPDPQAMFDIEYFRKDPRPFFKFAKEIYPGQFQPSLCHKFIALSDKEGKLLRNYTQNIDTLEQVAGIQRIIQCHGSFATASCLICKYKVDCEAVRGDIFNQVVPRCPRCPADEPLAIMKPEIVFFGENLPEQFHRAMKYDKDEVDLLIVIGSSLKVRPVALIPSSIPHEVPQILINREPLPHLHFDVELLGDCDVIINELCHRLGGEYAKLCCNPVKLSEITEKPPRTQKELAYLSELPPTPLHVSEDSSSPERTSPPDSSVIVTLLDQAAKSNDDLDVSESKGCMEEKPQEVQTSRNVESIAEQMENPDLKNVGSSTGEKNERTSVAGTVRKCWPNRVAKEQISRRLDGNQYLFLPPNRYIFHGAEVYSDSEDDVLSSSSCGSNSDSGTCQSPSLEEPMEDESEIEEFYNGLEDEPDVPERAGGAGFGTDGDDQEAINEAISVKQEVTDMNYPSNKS
Procedure, shortened: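 His-tagged human SIRT1 (10 nM, E. coli) incubated 25 min at 25 °C with […] p53-derived acetylated 5TMR peptide and 120 μM βNAD+ in pH 8 Tris-acetate buffer, then formic acid-stopped. Mass spectrometry quantifies acetylated vs deacetylated peptide; nicotinamide and DMSO controls.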

[2] = tested on: TNF; test: TNF IC50 (column of Table 1; method not shown); format: cell-based

Compound	Emax [1] [%]	EC1.5 [1]	IC50 [2] [µM]	EC1.5 (concentration giving 1.5-fold activation) [1] [nM]
O=C(Nc1ccncc1)N1CCOc2ccc(-c3cccc(C(F)(F)F)c3)nc21 [Compound 501]	> 200	A (EC1.5<1.0 μM)	< 20	–
O=C(Nc1ccncn1)N1CCOc2ccc(-c3cccc(C(F)(F)F)c3)nc21 [Compound 503]	> 200	A (EC1.5<1.0 μM)	≥ 20	–
O=C(Nc1cccc(N2CCOCC2)n1)N1CCOc2ccc(-c3cccc(C(F)(F)F)c3)nc21 [Compound 506, N-(6-morpholinopyridin-2-yl)-6-(3-(trifluoromethyl)phenyl)-2H-pyrido[3,2-b][1,4]oxazine-4(3H)-carboxamide]	> 200	A (EC1.5<1.0 μM)	≥ 20	–
O=C(Nc1ccc(F)cn1)N1CCCCc2ccc(-c3cccc(C(F)(F)F)c3)nc21 [Compound 816]	≤ 200	–	–	> 25000
Cc1cc(OCC(O)CO)nc(NC(=O)N2CCC(F)(F)c3ccc(-c4cccc(C(F)(F)F)c4)nc32)n1 (stereo not drawn) [Compound 824]	≤ 200	–	–	1000 to 25000
O=C1CCCN(C(=O)Nc2cccnc2)c2nc(-c3cccc(C(F)(F)F)c3)ccc21 [Compound 829]	> 200	–	–	1000 to 25000
CC1(C)CCN(C(=O)Nc2cccnc2)c2nc(-c3cccc(Cl)c3)ccc2C1=O [Compound 833]	≤ 200	–	–	> 25000
Cc1csc(NC(=O)N2CCC(C)(C)C(=O)c3ccc(-c4cccc(Cl)c4)nc32)n1 [Compound 837]	≤ 200	–	–	1000 to 25000
CC1(C)CCN(C(=O)Nc2ncccc2F)c2nc(-c3cccc(C(F)(F)F)c3)ccc21 [Compound 842]	≤ 200	–	–	1000 to 25000
CC1(C)CCN(C(=O)Nc2ccc(F)cn2)c2nc(-c3cccc(C(F)(F)F)c3)ccc21 [Compound 843]	≤ 200	–	–	1000 to 25000
Cc1cc(OCC(O)CO)nc(NC(=O)N2CCC(C)(C)c3ccc(-c4cccc(C(F)(F)F)c4)nc32)n1 (stereo not drawn) [Compound 844]	> 200	–	–	1000 to 25000
CC1(C)CCN(C(=O)Nc2cc(OCC(O)CO)ccn2)c2nc(-c3cccc(C(F)(F)F)c3)ccc21 (stereo not drawn) [Compound 846]	> 200	–	–	< 1000
O=C(Nc1cncc(F)c1)N1CCCOc2ccc(-c3cccc(Cl)c3)nc21 [Compound 853]	> 200	–	–	1000 to 25000
Cc1cc(OCC(O)CO)nc(NC(=O)N2CCCOc3ccc(-c4cccc(Cl)c4)nc32)n1 (stereo not drawn) [Compound 859]	> 200	–	–	1000 to 25000
O=C(Nc1ncccn1)N1CCCOc2ccc(-c3cccc(Cl)c3)nc21 [Compound 865]	> 200	–	–	1000 to 25000
O=C(Nc1cccnn1)N1CCCOc2ccc(-c3cccc(Cl)c3)nc21 [Compound 867]	> 200	–	–	1000 to 25000
Cc1cccnc1NC(=O)N1CCCOc2ccc(-c3cccc(Cl)c3)nc21 [Compound 871]	≤ 200	–	–	> 25000
COc1cc(NC(=O)N2CCCOc3ccc(-c4cccc(Cl)c4)nc32)ncn1 [Compound 872]	> 200	–	–	< 1000
Cc1nn(C)c(C)c1NC(=O)N1CCCOc2ccc(-c3cccc(Cl)c3)nc21 [Compound 879]	≤ 200	–	–	> 25000

More lines, now with the values ahead:

Emax [1] [%]	EC1.5 [1]	IC50 [2] [µM]	EC1.5 (concentration giving 1.5-fold activation) [1] [nM]	Compound
> 200	A (EC1.5<1.0 μM)	≥ 20	–	O=C(Nc1ccccn1)N1CCOc2ccc(-c3cccc(C(F)(F)F)c3)nc21 [Compound 502]
> 200	A (EC1.5<1.0 μM)	≥ 20	–	O=C(Nc1ccnc(N2CCCC2)c1)N1CCOc2ccc(-c3cccc(C(F)(F)F)c3)nc21 [Compound 508]
> 200	–	–	1000 to 25000	O=C(Nc1ccncn1)N1CCCCc2ccc(-c3cccc(C(F)(F)F)c3)nc21 [Compound 815]
> 200	–	–	1000 to 25000	O=C(Nc1ccncc1F)N1CCCCc2ccc(-c3cccc(C(F)(F)F)c3)nc21 [Compound 817]
≤ 200	–	–	> 25000	Cc1cccc(NC(=O)N2CCCCc3ccc(-c4cccc(C(F)(F)F)c4)nc32)n1 [Compound 818]
> 200	–	–	< 1000	O=C1CCCN(C(=O)Nc2ccccn2)c2nc(-c3cccc(C(F)(F)F)c3)ccc21 [Compound 819]
> 200	–	–	< 1000	Cc1cc(NC(=O)N2CCCC(=O)c3ccc(-c4cccc(C(F)(F)F)c4)nc32)ccn1 [Compound 820]
> 200	–	–	1000 to 25000	O=C1CCCN(C(=O)Nc2ccncc2F)c2nc(-c3cccc(C(F)(F)F)c3)ccc21 [Compound 821]
≤ 200	–	–	1000 to 25000	O=C(Nc1ncccc1F)N1CCC(F)(F)c2ccc(-c3cccc(C(F)(F)F)c3)nc21 [Compound 822]
> 200	–	–	< 1000	CC1(C)CCN(C(=O)Nc2ccncc2)c2nc(-c3cccc(C(F)(F)F)c3)ccc21 [Compound 826, 4,4-dimethyl-N-(pyridin-4-yl)-7-(3-(trifluoromethyl)phenyl)-3,4-dihydro-1,8-naphthyridine-1(2H)-carboxamide]
> 200	–	–	< 1000	CC1(C)CCN(C(=O)Nc2ccccn2)c2nc(-c3cccc(C(F)(F)F)c3)ccc21 [Compound 827]
> 200	–	–	1000 to 25000	O=C1CCCN(C(=O)Nc2ccncc2)c2nc(-c3cccc(C(F)(F)F)c3)ccc21 [Compound 828]
≤ 200	–	–	1000 to 25000	CC1(C)CCN(C(=O)Nc2ccncc2)c2nc(-c3cccc(Cl)c3)ccc2C1=O [Compound 832]
≤ 200	–	–	1000 to 25000	Cc1cnccc1NC(=O)N1CCC(C)(C)c2ccc(-c3cccc(C(F)(F)F)c3)nc21 [Compound 834, 4,4-dimethyl-N-(3-methylpyridin-4-yl)-7-(3-(trifluoromethyl)phenyl)-3,4-dihydro-1,8-naphthyridine-1(2H)-carboxamide]
> 200	–	–	1000 to 25000	CC1(C)CCN(C(=O)Nc2cncnc2)c2nc(-c3cccc(C(F)(F)F)c3)ccc21 [Compound 835]
≤ 200	–	–	1000 to 25000	CC1(C)CCN(C(=O)Nc2ccncc2F)c2nc(-c3cccc(Cl)c3)ccc2C1=O [Compound 836, 2-(3-chlorophenyl)-N-(3-fluoropyridin-4-yl)-6,6-dimethyl-5-oxo-7,8-dihydro-5H-pyrido[2,3-b]azepine-9(6H)-carboxamide]
> 200	–	–	< 1000	O=C(Nc1cccc(OCC(O)CO)c1)N1CCC(F)(F)c2ccc(-c3cccc(C(F)(F)F)c3)nc21 (stereo not drawn) [Compound 841]
≤ 200	–	–	> 25000	CC1(C)CCN(C(=O)Nc2ccncc2F)c2nc(-c3cccc(C(F)(F)F)c3)ccc21 [Compound 847]
> 200	–	–	1000 to 25000	O=C(Nc1cncnc1)N1CCCOc2ccc(-c3cccc(Cl)c3)nc21 [Compound 852]
> 200	–	–	1000 to 25000	COc1nccc(NC(=O)N2CCCOc3ccc(-c4cccc(Cl)c4)nc32)n1 [Compound 854]
≤ 200	–	–	1000 to 25000	Cc1cnccc1NC(=O)N1CCCOc2ccc(-c3cccc(Cl)c3)nc21 [Compound 855]
> 200	–	–	1000 to 25000	O=C(Nc1ccncc1)N1CCCOc2ccc(-c3cccc(Cl)c3)nc21 [Compound 856]
≤ 200	–	–	> 25000	Cc1cc(C)nc(NC(=O)N2CCCOc3ccc(-c4cccc(Cl)c4)nc32)c1 [Compound 857]
> 200	–	–	< 1000	O=C(Nc1cncc(OCC(O)CO)n1)N1CCCOc2ccc(-c3cccc(Cl)c3)nc21 (stereo not drawn) [Compound 858]
≤ 200	–	–	1000 to 25000	Cc1cc(NC(=O)N2CCCOc3ccc(-c4cccc(Cl)c4)nc32)ncc1F [Compound 863]
> 200	–	–	1000 to 25000	O=C(Nc1cnccn1)N1CCCOc2ccc(-c3cccc(Cl)c3)nc21 [Compound 866]
> 200	–	–	1000 to 25000	O=C(Nc1ccnc2cccnc12)N1CCCOc2ccc(-c3cccc(Cl)c3)nc21 [Compound 884]
≤ 200	–	–	1000 to 25000	O=C1NCc2cccc(NC(=O)N3CCCOc4ccc(-c5cccc(Cl)c5)nc43)c21 [Compound 885]

From patent publication US9556201B2, “Bicyclic pyridines and analogs as sirtuin modulators” (GLAXOSMITHKLINE LLC, priority 2009, dated 2017)
